{"source": "BigSolDB 2.1", "data": [{"smiles": "Nc1cccc2c(N)cccc12", "values": [{"measurement": "solubility (mole fraction)", "setting": "in acetonitrile, 273.15 K", "result": 0.00186}, {"measurement": "solubility (mole fraction)", "setting": "in acetonitrile, 278.15 K", "result": 0.00238}, {"measurement": "solubility (mole fraction)", "setting": "in acetonitrile, 283.15 K", "result": 0.00305}, {"measurement": "solubility (mole fraction)", "setting": "in acetonitrile, 288.15 K", "result": 0.00382}, {"measurement": "solubility (mole fraction)", "setting": "in acetonitrile, 293.15 K", "result": 0.00477}, {"measurement": "solubility (mole fraction)", "setting": "in acetonitrile, 298.15 K", "result": 0.00577}, {"measurement": "solubility (mole fraction)", "setting": "in acetonitrile, 303.15 K", "result": 0.00695}, {"measurement": "solubility (mole fraction)", "setting": "in acetonitrile, 308.15 K", "result": 0.00834}, {"measurement": "solubility (mole fraction)", "setting": "in acetonitrile, 313.15 K", "result": 0.00983}, {"measurement": "solubility (mole fraction)", "setting": "in ethyl acetate, 273.15 K", "result": 0.00404}, {"measurement": "solubility (mole fraction)", "setting": "in ethyl acetate, 278.15 K", "result": 0.00487}, {"measurement": "solubility (mole fraction)", "setting": "in ethyl acetate, 283.15 K", "result": 0.00569}, {"measurement": "solubility (mole fraction)", "setting": "in ethyl acetate, 288.15 K", "result": 0.00662}, {"measurement": "solubility (mole fraction)", "setting": "in ethyl acetate, 293.15 K", "result": 0.00759}, {"measurement": "solubility (mole fraction)", "setting": "in ethyl acetate, 298.15 K", "result": 0.00869}, {"measurement": "solubility (mole fraction)", "setting": "in ethyl acetate, 303.15 K", "result": 0.00992}, {"measurement": "solubility (mole fraction)", "setting": "in ethyl acetate, 308.15 K", "result": 0.0113}, {"measurement": "solubility (mole fraction)", "setting": "in ethyl acetate, 313.15 K", "result": 0.0128}, {"measurement": "solubility (mole fraction)", "setting": "in isopropanol, 273.15 K", "result": 0.000471}, {"measurement": "solubility (mole fraction)", "setting": "in isopropanol, 278.15 K", "result": 0.000564}, {"measurement": "solubility (mole fraction)", "setting": "in isopropanol, 283.15 K", "result": 0.000684}, {"measurement": "solubility (mole fraction)", "setting": "in isopropanol, 288.15 K", "result": 0.000807}, {"measurement": "solubility (mole fraction)", "setting": "in isopropanol, 293.15 K", "result": 0.000947}, {"measurement": "solubility (mole fraction)", "setting": "in isopropanol, 298.15 K", "result": 0.0011}, {"measurement": "solubility (mole fraction)", "setting": "in isopropanol, 303.15 K", "result": 0.00126}, {"measurement": "solubility (mole fraction)", "setting": "in isopropanol, 308.15 K", "result": 0.00144}, {"measurement": "solubility (mole fraction)", "setting": "in isopropanol, 313.15 K", "result": 0.00163}, {"measurement": "solubility (mole fraction)", "setting": "in methanol, 273.15 K", "result": 0.00112}, {"measurement": "solubility (mole fraction)", "setting": "in methanol, 278.15 K", "result": 0.00132}, {"measurement": "solubility (mole fraction)", "setting": "in methanol, 283.15 K", "result": 0.00154}, {"measurement": "solubility (mole fraction)", "setting": "in methanol, 288.15 K", "result": 0.00181}, {"measurement": "solubility (mole fraction)", "setting": "in methanol, 293.15 K", "result": 0.00209}, {"measurement": "solubility (mole fraction)", "setting": "in methanol, 298.15 K", "result": 0.0024}, {"measurement": "solubility (mole fraction)", "setting": "in methanol, 303.15 K", "result": 0.00278}, {"measurement": "solubility (mole fraction)", "setting": "in methanol, 308.15 K", "result": 0.0032}, {"measurement": "solubility (mole fraction)", "setting": "in methanol, 313.15 K", "result": 0.00369}, {"measurement": "solubility (mole fraction)", "setting": "in n-propanol, 273.15 K", "result": 0.00064}, {"measurement": "solubility (mole fraction)", "setting": "in n-propanol, 278.15 K", "result": 0.000762}, {"measurement": "solubility (mole fraction)", "setting": "in n-propanol, 283.15 K", "result": 0.000895}, {"measurement": "solubility (mole fraction)", "setting": "in n-propanol, 288.15 K", "result": 0.00105}, {"measurement": "solubility (mole fraction)", "setting": "in n-propanol, 293.15 K", "result": 0.00122}, {"measurement": "solubility (mole fraction)", "setting": "in n-propanol, 298.15 K", "result": 0.00142}, {"measurement": "solubility (mole fraction)", "setting": "in n-propanol, 303.15 K", "result": 0.00165}, {"measurement": "solubility (mole fraction)", "setting": "in n-propanol, 308.15 K", "result": 0.00192}, {"measurement": "solubility (mole fraction)", "setting": "in n-propanol, 313.15 K", "result": 0.00224}, {"measurement": "solubility (mole fraction)", "setting": "in toluene, 273.15 K", "result": 0.000262}, {"measurement": "solubility (mole fraction)", "setting": "in toluene, 278.15 K", "result": 0.000345}, {"measurement": "solubility (mole fraction)", "setting": "in toluene, 283.15 K", "result": 0.000445}, {"measurement": "solubility (mole fraction)", "setting": "in toluene, 288.15 K", "result": 0.00056}, {"measurement": "solubility (mole fraction)", "setting": "in toluene, 293.15 K", "result": 0.000689}, {"measurement": "solubility (mole fraction)", "setting": "in toluene, 298.15 K", "result": 0.00084}, {"measurement": "solubility (mole fraction)", "setting": "in toluene, 303.15 K", "result": 0.00102}, {"measurement": "solubility (mole fraction)", "setting": "in toluene, 308.15 K", "result": 0.0012}, {"measurement": "solubility (mole fraction)", "setting": "in toluene, 313.15 K", "result": 0.0014}]}, {"smiles": "Nc1cccc2cccc(N)c12", "values": [{"measurement": "solubility (mole fraction)", "setting": "in acetonitrile, 273.15 K", "result": 0.0518}, {"measurement": "solubility (mole fraction)", "setting": "in acetonitrile, 278.15 K", "result": 0.065}, {"measurement": "solubility (mole fraction)", "setting": "in acetonitrile, 283.15 K", "result": 0.0798}, {"measurement": "solubility (mole fraction)", "setting": "in acetonitrile, 288.15 K", "result": 0.0966}, {"measurement": "solubility (mole fraction)", "setting": "in acetonitrile, 293.15 K", "result": 0.116}, {"measurement": "solubility (mole fraction)", "setting": "in acetonitrile, 298.15 K", "result": 0.139}, {"measurement": "solubility (mole fraction)", "setting": "in acetonitrile, 303.15 K", "result": 0.166}, {"measurement": "solubility (mole fraction)", "setting": "in acetonitrile, 308.15 K", "result": 0.197}, {"measurement": "solubility (mole fraction)", "setting": "in acetonitrile, 313.15 K", "result": 0.231}, {"measurement": "solubility (mole fraction)", "setting": "in ethyl acetate, 273.15 K", "result": 0.0765}, {"measurement": "solubility (mole fraction)", "setting": "in ethyl acetate, 278.15 K", "result": 0.091}, {"measurement": "solubility (mole fraction)", "setting": "in ethyl acetate, 283.15 K", "result": 0.107}, {"measurement": "solubility (mole fraction)", "setting": "in ethyl acetate, 288.15 K", "result": 0.127}, {"measurement": "solubility (mole fraction)", "setting": "in ethyl acetate, 293.15 K", "result": 0.152}, {"measurement": "solubility (mole fraction)", "setting": "in ethyl acetate, 298.15 K", "result": 0.179}, {"measurement": "solubility (mole fraction)", "setting": "in ethyl acetate, 303.15 K", "result": 0.212}, {"measurement": "solubility (mole fraction)", "setting": "in ethyl acetate, 308.15 K", "result": 0.252}, {"measurement": "solubility (mole fraction)", "setting": "in ethyl acetate, 313.15 K", "result": 0.295}, {"measurement": "solubility (mole fraction)", "setting": "in isopropanol, 273.15 K", "result": 0.0221}, {"measurement": "solubility (mole fraction)", "setting": "in isopropanol, 278.15 K", "result": 0.0277}, {"measurement": "solubility (mole fraction)", "setting": "in isopropanol, 283.15 K", "result": 0.0338}, {"measurement": "solubility (mole fraction)", "setting": "in isopropanol, 288.15 K", "result": 0.0407}, {"measurement": "solubility (mole fraction)", "setting": "in isopropanol, 293.15 K", "result": 0.0491}, {"measurement": "solubility (mole fraction)", "setting": "in isopropanol, 298.15 K", "result": 0.0588}, {"measurement": "solubility (mole fraction)", "setting": "in isopropanol, 303.15 K", "result": 0.0688}, {"measurement": "solubility (mole fraction)", "setting": "in isopropanol, 308.15 K", "result": 0.0807}, {"measurement": "solubility (mole fraction)", "setting": "in isopropanol, 313.15 K", "result": 0.0936}, {"measurement": "solubility (mole fraction)", "setting": "in methanol, 273.15 K", "result": 0.018}, {"measurement": "solubility (mole fraction)", "setting": "in methanol, 278.15 K", "result": 0.0219}, {"measurement": "solubility (mole fraction)", "setting": "in methanol, 283.15 K", "result": 0.0267}, {"measurement": "solubility (mole fraction)", "setting": "in methanol, 288.15 K", "result": 0.0327}, {"measurement": "solubility (mole fraction)", "setting": "in methanol, 293.15 K", "result": 0.0391}, {"measurement": "solubility (mole fraction)", "setting": "in methanol, 298.15 K", "result": 0.0467}, {"measurement": "solubility (mole fraction)", "setting": "in methanol, 303.15 K", "result": 0.0551}, {"measurement": "solubility (mole fraction)", "setting": "in methanol, 308.15 K", "result": 0.0647}, {"measurement": "solubility (mole fraction)", "setting": "in methanol, 313.15 K", "result": 0.0754}, {"measurement": "solubility (mole fraction)", "setting": "in n-propanol, 273.15 K", "result": 0.0385}, {"measurement": "solubility (mole fraction)", "setting": "in n-propanol, 278.15 K", "result": 0.0484}, {"measurement": "solubility (mole fraction)", "setting": "in n-propanol, 283.15 K", "result": 0.0594}, {"measurement": "solubility (mole fraction)", "setting": "in n-propanol, 288.15 K", "result": 0.0718}, {"measurement": "solubility (mole fraction)", "setting": "in n-propanol, 293.15 K", "result": 0.0868}, {"measurement": "solubility (mole fraction)", "setting": "in n-propanol, 298.15 K", "result": 0.103}, {"measurement": "solubility (mole fraction)", "setting": "in n-propanol, 303.15 K", "result": 0.121}, {"measurement": "solubility (mole fraction)", "setting": "in n-propanol, 308.15 K", "result": 0.142}, {"measurement": "solubility (mole fraction)", "setting": "in n-propanol, 313.15 K", "result": 0.166}, {"measurement": "solubility (mole fraction)", "setting": "in toluene, 273.15 K", "result": 0.0423}, {"measurement": "solubility (mole fraction)", "setting": "in toluene, 278.15 K", "result": 0.0512}, {"measurement": "solubility (mole fraction)", "setting": "in toluene, 283.15 K", "result": 0.0654}, {"measurement": "solubility (mole fraction)", "setting": "in toluene, 288.15 K", "result": 0.0803}, {"measurement": "solubility (mole fraction)", "setting": "in toluene, 293.15 K", "result": 0.0966}, {"measurement": "solubility (mole fraction)", "setting": "in toluene, 298.15 K", "result": 0.117}, {"measurement": "solubility (mole fraction)", "setting": "in toluene, 303.15 K", "result": 0.138}, {"measurement": "solubility (mole fraction)", "setting": "in toluene, 308.15 K", "result": 0.163}, {"measurement": "solubility (mole fraction)", "setting": "in toluene, 313.15 K", "result": 0.189}]}]}
